Earlier results on 14 compounds are cited in patent publication US20250339399A1, “SUPRAMOLECULAR SELF-ASSEMBLY SYSTEM” (Beijing Creatron Institute of Pharmaceutical Research Co., …, priority 2022, published 2025).

What is called LogP is a log measure of how a compound divides between an organic and an aqueous phase.

Each structure is given as a SMILES string. Read-outs that look alike come from different tables or passages of the source.

For the data set the following is noted: cited from earlier work; for Sol / LogP: natural flavonoids (chalcone, dihydrochalcone class).

Regarding `C=C1C[C@@]23CC[C@H]4[C@@](C)(CCC[C@@]4(C)C(=O)O[C@@H]4O[C@H](CO)[C@@H](O)[C@H](O)[C@H]4O)[C@@H]2CC[C@]1(O[C@@H]1O[C@H](CO)[C@@H](O)[C@H](O)[C@H]1O)C3` [Rubusoside, rubusoside], the Intrinsic solubility entry is “Intrinsic solubility: 0.39 mg/ml”.

For `O=C(CCc1ccc(O)c(O)c1)c1c(O)cc(O)cc1O` [3-hydroxyphloretin, 3-(3,4-dihydroxyphenyl)-1-(2,4,6-trihydroxyphenyl)propan-1-one], where the note is “Table 1 basic information”, the Sol is 8.59 mg/mL. For `COc1cc(-c2oc3cc(O)cc(O)c3c(=O)c2O)ccc1O` [Isorhamnetin], the “Intrinsic solubility (value in the class heading)” value (parent flavonoid of the class, Table 1 basic information) was “Isorhamnetin derivatives (0.45 mg/ml)”. On to `O=c1c(O)c(-c2cc(O)c(O)c(O)c2)oc2cc(O)cc(O)c12` [Myricetin], for which the “solubility value given in Table 1 (basic information of natural flavonoids)” value (parent flavonoid of the class, value follows the class name) is reported as “Myricetin (529-44-2) derivatives −3.14 mg/ml”.

Consider `C[C@@H]1O[C@@H](O[C@H]2[C@H](Oc3cc(O)c(C(=O)CCc4ccc(O)cc4)c(O)c3)O[C@H](CO)[C@@H](O)[C@@H]2O)[C@H](O)[C@H](O)[C@H]1O` [Naringin dihydrochalcone, naringin dihydrochalcone], for which, where the note is “Table 1 basic information”, the LogP is listed as 0.90 and the Sol was 6.78 mg/mL. As for `O=C(CCc1ccc(O)cc1)c1c(O)cc(O[C@@H]2O[C@H](CO)[C@@H](O)[C@H](O)[C@H]2O)cc1O` [Trilobatin, trilobatin], for the setting “Table 1 basic information”, the Sol is 3.89 mg/mL. With `CC(=O)O[C@H]1[C@H](Oc2cc(O)c(C(=O)CCc3ccc(O)cc3)c(O)c2)O[C@H](CO)[C@@H](O)[C@@H]1O` [Trilobatin 2″-acetate, [(2S,3R,4S,5S,6R)-(R)-2-[3,5-dihydroxy-4-[3-(4-hydroxyphenyl)propionyl]phenoxy]-4,5-dihydroxy-6-(hydroxymethyl)oxy-3-yl]acetate], under “Table 1 basic information”, the log partition coefficient (LogP) is recorded as 2.07 and the Sol is 2.08 mg/mL. `O=c1c(O)c(-c2ccc(O)c(O)c2)oc2cc(O)cc(O)c12` [Quercetin]: the Intrinsic solubility result (parent flavonoid of the class, Table 1 basic information, unit not given) is “Quercetin (CAS 117-39-5) derivatives EUF (Intrinsic solubility: 1.11)”. Turning to `C=C1C[C@@]23CC[C@H]4[C@@](C)(CCC[C@@]4(C)C(=O)O[C@@H]4O[C@H](CO)[C@@H](O)[C@H](O)[C@H]4O)[C@@H]2CC[C@]1(O[C@@H]1O[C@H](CO)[C@@H](O)[C@H](O[C@@H]2O[C@H](CO)[C@@H](O)[C@H](O)[C@H]2O)[C@H]1O[C@@H]1O[C@@H](C)[C@H](O)[C@@H](O)[C@H]1O)C3` [Rebaudioside C, rebaudioside C], the Intrinsic solubility result is recorded as “Intrinsic solubility: 72.63 mg/ml”. Turning to `COc1ccc(CCC(=O)c2c(O)cc(O[C@@H]3O[C@H](CO)[C@@H](O)[C@H](O)[C@H]3O[C@@H]3O[C@@H](C)[C@H](O)[C@@H](O)[C@H]3O)cc2O)cc1O` [Neosperidin dihydrochalcone, neohesperidin dihydrochalcone], the Sol (Table 1 basic information) was 104.87 mg/mL. Regarding `O=c1c(O)c(-c2ccc(O)cc2)oc2cc(O)cc(O)c12` [Kaempferol, kaempferol], where the note is “parent flavonoid of the class, no unit printed in the heading”, the “solubility value given in Table 1 (basic information of natural flavonoids)” value is on record as “Kaempferol (520-18-3) derivatives-0.40”. For the compound `O=C(CCc1ccc(O)cc1)c1c(O)cc(O)cc1O` [Phloretin, 3-(4-hydroxyphenyl)-1-(2,4,6-trihydroxyphenyl)propan-1-one], the Sol (Table 1 basic information) is 3.07 mg/mL. `O=C(CCc1ccc(O)c(O)c1)c1c(O)cc(O[C@@H]2O[C@H](CO)[C@@H](O)[C@H](O)[C@H]2O)cc1O` [Sieboldin, 1-(2,6-dihydroxy-4-{[3,4,5-trihydroxy-6-(hydroxymethyl)oxo-2-yl]oxy}phenyl)-3-(3,4-dihydroxyphenyl)propan-1-one]: for the setting “Table 1 basic information”, the LogP is on record as 1.32 and the Sol was 11.65 mg/mL. `C=C1C[C@@]23CC[C@H]4[C@@](C)(CCC[C@@]4(C)C(=O)O[C@@H]4O[C@H](CO)[C@@H](O)[C@H](O)[C@H]4O)[C@@H]2CC[C@]1(O[C@@H]1O[C@H](CO)[C@@H](O)[C@H](O)[C@H]1O[C@@H]1O[C@H](CO)[C@@H](O)[C@H](O)[C@H]1O)C3` [Stevioside]: the Intrinsic solubility entry is recorded as “Intrinsic solubility: 6.7 mg/ml”.
